Test results published in ChEMBL document CHEMBL1148863, “Discovering new inhibitors of bacterial glucosamine-6P synthase (GlmS) by docking simulations” (Bioorg Med Chem Lett, 2007).

Tests used:
[1] = Inhibition of bacterial glucosamine-6-phosphate synthase by colorimetric morgan-elson assay
[2] = Inhibition of bacterial glucosamine-6-phosphate synthase at 100 uM by colorimetric morgan-elson assay

IC50 [1] [µM] | inhibition [2] [%] | Compound
– | 0 | O=C(O)CC(Sc1ccc(C(=O)O)cc1)C(=O)O (stereo not drawn)
– | 0 | COC(=O)c1sc(N2C(=O)C(O)=C(C(=O)c3ccc(Cl)cc3)C2c2ccccc2F)nc1C (stereo not drawn)
120 | – | COc1cc2ccnc3c2c(c1OC)NC=C3 [AAPTAMINE]
– | 0 | O=S(=O)(NC(NS(=O)(=O)c1ccccc1)c1ccc(Br)cc1)c1ccccc1
– | 20 | O=C(C1=C(O)C(=O)N(Cc2cccnc2)C1c1cccc(Oc2ccccc2)c1)c1ccco1 (stereo not drawn)
– | 0 | O=C(O)C[C@@H](NS(=O)(=O)c1ccccc1)C(=O)O
70 | 70 | CCOC(=O)c1sc(N2C(=O)C(O)=C(C(=O)c3ccc(F)cc3)C2c2ccc(OC)cc2)nc1C (stereo not drawn)
70 | 70 | COc1ccccc1C1Oc2ccccc2C2=C1C(c1ccccc1OC)n1nc(C)nc1N2 (stereo not drawn)
– | 0 | O=C(O)Cc1csc(NC(=O)CSc2ccccn2)n1
56 | 85 | N[C@@H](CO)[C@@H](O)[C@H](O)[C@H](O)COP(=O)(O)O
– | 0 | COC(=O)c1sc(N2C(=O)C(O)=C(C(=O)c3ccccc3)C2c2ccc(C)cc2)nc1C (stereo not drawn)
– | 0 | COc1ccc(-c2sc(C(=O)O)cc2CC(=O)O)cc1
70 | 70 | CCOC(=O)c1sc(N2C(=O)C(O)=C(C(=O)c3ccc(F)cc3)C2c2cccc(Br)c2)nc1C (stereo not drawn)

Compound | IC50 [1] [µM] | inhibition [2] [%]
Nc1nc[nH]n1 [AMITROLE] | 100 | –
